The results in this text go back to US10577365B2, “Derivatives of quinoline as inhibitors of DYRK1A and/or DYRK1B kinases” (Felicitex Therapeutics, Inc., priority 2016, dated 2020).

One experiment addresses T1, DYRK1A (Homo sapiens, UniProt Q13627).
T1 construct: purchased Carna Bioscence (Carna Biosciences) 04-130
In words: DYRK1A in vitro kinase assay (ADP-Glo). Format: biochemical. Particulars: ATP 70 μM (Km), substrate 3 μM, enzyme 2 nM or 0.7 nM, 30 min, rt. The method, then:
The compounds of the present invention were tested for their inhibitory activity against DYRK1A and DYRK1B kinases once or several times. When tested more than once, the data are reported herein as average value, wherein the average value, also referred to as the mean value, represents the sum of obtained values divided by the number of times tested.
DYRK-inhibitory activity of the compounds of the present invention was tested using the ADP-Glo™ assay as described in the following paragraphs. The procedure for determining the IC50 values with the ADP-Glo™ assay in in vitro kinase assays consists of two parts:
1. Kinase reaction performed under optimized conditions;
2. Detection of ADP as a product of the reaction using ADP-Glo™ system (Promega).
The tested compounds indicated in Table 5 below were dissolved in DMSO, then transferred to the V-bottom PP plate to perform nine serial dilutions (in order to obtain dose-response curves) in 25% DMSO, as indicated in Table 5 below.
The optimized conditions for performing DYRK1A in vitro kinase assay were as follows:
For compound testing, the following protocol was used: two mixes were prepared on ice, Mix 1 containing substrate, ATP and reaction buffer and Mix 2 containing reaction buffer and the kinase. 15 μL per well of Mix 1 was transferred to wells of a 96-well plate. Next, 2.5 μL of the pre-diluted compound to be tested was added to Mix 1, followed by the addition of 12.5 μL of Mix 2. Total reaction volume was 30 μL per well. The experiment was performed in duplicate for each data point being examined. Dose response curve for the positive control was carried out on each assay plate by adding the reference inhibitory compound staurosporine. For each test, three controls were also included: (i) 30 μL of the reaction mixture containing: reaction buffer, ATP, kinase, DMSO without substrate (quasi-positive control); (ii) 30 μL of the reaction mixture containing reaction buffer, substrate, ATP, DMSO without kinase (background control); (iii) 30 μL of the reaction mixture containing reaction buffer, substrate, kinase, ATP, DMSO (vehicle control). Final concentration of DMSO in the reaction was 2%. To detect the ADP amount produced during the kinase reaction, the commercially available kit ADP-Glo™ Kinase Assay (Promega, cat. No # V9103) was used. The protocol used for the detection was based on the Technical Bulletin of the ADP-Glo™ Kinase Assay (Promega) and was adapted to 96-well plate containing 30 μL reaction mixture as explained below.
30 μL of ADP-Glo™ Reagent was added to each well of a 96 well plate containing 30 μL of reaction mixture to terminate the kinase reaction and deplete the remaining ATP. The plate was incubated for 60 minutes on a shaker at rt. 60 μL of Kinase Detection Solution was then added to each well of 96-well plate containing 60 μL of the solution to convert ADP to ATP and to allow the newly synthesized ATP to be measured using a luciferase/luciferin reaction (ratio of kinase reaction volume to ADP Glo™ Reagent volume to Kinase Detection Solution volume was maintained at 1:1:2). The plate was incubated for 40 minutes on a shaker at rt, protected from light. Luminescence was measured in the plate reader, wherein the luminescent signal is proportional to the ADP concentration produced and thus correlates with kinase activity.
After data normalization to controls (complete reaction mix and no-substrate control) and transforming X values (test compound concentrations) using: X=log(X), IC50 values were determined, using the GraphPad Prism 6.0 [log(agonist) vs. normalized response—Variable slope].
A general note: ADP-Glo first removes unused ATP, then detects ADP through luciferase.

The next experiment concerns the target T2, DYRK1B (Homo sapiens, UniProt Q9Y463).
T2 construct: purchased Carna Bioscence (Carna Biosciences) 04-131
The experiment in a line: DYRK1B in vitro kinase assay (ADP-Glo). The format is biochemical. Particulars: ADP-Glo assay, ATP 15 μM (Km), substrate 7 μM, enzyme 1 nM or 0.3 nM, 1 h, rt; read-out: DYRK1B IC50. The method, then: The compounds of the present invention were tested for their inhibitory activity against DYRK1A and DYRK1B kinases once or several times. When tested more than once, the data are reported herein as average value, wherein the average value, also referred to as the mean value, represents the sum of obtained values divided by the number of times tested. DYRK-inhibitory activity of the compounds of the present invention was tested using the ADP-Glo™ assay as described in the following paragraphs. The procedure for determining the IC50 values with the ADP-Glo™ assay in in vitro kinase assays consists of two parts: […] Kinase reaction performed under optimized conditions; 2. Detection of ADP as a product of the reaction using ADP-Glo™ system (Promega). The tested compounds indicated in Table 5 below were dissolved in DMSO, then transferred to the V-bottom PP plate to perform nine serial dilutions (in order to obtain dose-response curves) in 25% DMSO, as indicated in Table 5 below. The optimized conditions for performing DYRK1B in vitro kinase assay were as follows: [table] For compound testing, the following protocol was used: two mixes were prepared on ice, Mix 1 containing substrate, ATP and reaction buffer and Mix 2 containing reaction buffer and the kinase. 15 μL per well of Mix 1 was transferred to wells of a 96-well plate. […] Total reaction volume was 30 μL per well. The experiment was performed in duplicate for each data point being examined. Dose response curve for the positive control was carried out on each assay plate by adding the reference inhibitory compound staurosporine. For each test, three controls were also included: (i) 30 μL of the reaction mixture containing: reaction buffer, ATP, kinase, DMSO without substrate (quasi-positive control); (ii) 30 μL of the reaction mixture containing reaction buffer, substrate, ATP, DMSO without kinase (background control); (iii) 30 μL of the reaction mixture containing reaction buffer, substrate, kinase, ATP, DMSO (vehicle control). Final concentration of DMSO in the reaction was 2%. To detect the ADP amount produced during the kinase reaction, the commercially available kit ADP-Glo™ Kinase Assay (Promega, cat. No # V9103) was used. The protocol used for the detection was based on the Technical Bulletin of the ADP-Glo™ Kinase Assay (Promega) and was adapted to 96-well plate containing 30 μL reaction mixture as explained below. 30 μL of ADP-Glo™ Reagent was added to each well of a 96 well plate containing 30 μL of reaction mixture to terminate the kinase reaction and deplete the remaining ATP. The plate was incubated for 60 minutes on a shaker at rt. 60 μL of Kinase Detection Solution was then added to each well of 96-well plate containing 60 μL of the solution to convert ADP to ATP and to allow the newly synthesized ATP to be measured using a luciferase/luciferin reaction (ratio of kinase reaction volume to ADP Glo™ Reagent volume to Kinase Detection Solution volume was maintained at 1:1:2). The plate was incubated for 40 minutes on a shaker at rt, protected from light. Luminescence was measured in the plate reader, wherein the luminescent signal is proportional to the ADP concentration produced and thus correlates with kinase activity. After data normalization to controls (complete reaction mix and no-substrate control) and transforming X values (test compound concentrations) using: X=log(X), IC50 values were determined, using the GraphPad Prism 6.0 [log(agonist) vs. normalized response—Variable slope].

Counter-ions that a name gives are not always drawn.

T2 sequence (Q9Y463 whole entry): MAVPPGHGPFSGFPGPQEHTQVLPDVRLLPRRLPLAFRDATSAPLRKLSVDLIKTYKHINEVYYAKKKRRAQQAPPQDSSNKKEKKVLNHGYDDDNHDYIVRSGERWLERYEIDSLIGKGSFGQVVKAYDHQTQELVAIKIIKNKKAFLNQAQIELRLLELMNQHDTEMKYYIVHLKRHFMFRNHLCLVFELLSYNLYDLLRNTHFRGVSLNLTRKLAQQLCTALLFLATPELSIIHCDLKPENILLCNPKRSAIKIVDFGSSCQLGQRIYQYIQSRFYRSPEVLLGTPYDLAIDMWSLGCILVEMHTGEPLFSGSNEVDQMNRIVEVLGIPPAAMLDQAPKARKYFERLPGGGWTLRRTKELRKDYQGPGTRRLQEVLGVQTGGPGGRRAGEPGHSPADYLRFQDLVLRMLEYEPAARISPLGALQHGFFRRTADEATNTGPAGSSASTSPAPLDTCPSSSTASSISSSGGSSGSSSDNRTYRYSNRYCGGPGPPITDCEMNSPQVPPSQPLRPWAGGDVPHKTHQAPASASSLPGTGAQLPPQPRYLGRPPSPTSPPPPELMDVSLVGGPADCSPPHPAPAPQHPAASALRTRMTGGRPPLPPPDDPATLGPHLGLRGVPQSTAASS

Take `CNC(=O)c1cnc2[nH]cc(-c3ccc4ncc([N+](=O)[O-])c(N5CCC[C@H](N)C5)c4c3)c2c1` [Example 53, 3-{4-[(3S)-3-Aminopiperidin-1-yl]-3-nitroquinolin-6-yl}-N-methyl-1H-pyrrolo[2,3-b]pyridine-5-carboxamide hydrochloride]: the IC50 (in general, the concentration at which inhibition is half-maximal) was 10 to 100 nM at DYRK1A and < 10 nM at DYRK1B.
For `CNC(=O)c1cnc2[nH]cc(-c3cc(F)c4nccc(-c5cnccc5C)c4c3)c2c1` [Example 44, N-Methyl-3-[8-fluoro-4-(4-methylpyridin-3-yl)quinolin-6-yl]-1H-pyrrolo[2,3-b]pyridine-5-carboxamide] the same measures were < 10 nM and < 10 nM.
Regarding `NC(=O)c1cnc2[nH]cc(-c3cc(F)c4ncccc4c3)c2c1` [Example 33, 3-(8-Fluoroquinolin-6-yl)-1H-pyrrolo[2,3-b]pyridine-5-carboxamide], the IC50 against DYRK1A and at DYRK1B was < 10 nM in each case.
Turning to `CNC(=O)c1cnc2[nH]cc(-c3ccc4ncc(N)c(N5CCC[C@H](N)C5)c4c3)c2c1` [Example 54, 3-{3-Amino-4-[(3S)-3-aminopiperidin-1-yl]quinolin-6-yl}-N-methyl-1H-pyrrolo[2,3-b]pyridine-5-carboxamide hydrochloride], the IC50 against DYRK1A and on DYRK1B was < 10 nM in each case.
With `CNC(=O)c1cnc2[nH]cc(-c3cc(F)c4nccc(-c5cccnc5)c4c3)c2c1` [Example 39, 3-[8-Fluoro-4-(pyridin-3-yl)quinolin-6-yl]-N-methyl-1H-pyrrolo[2,3-b]pyridine-5-carboxamide], the IC50 against DYRK1A and on DYRK1B was < 10 nM throughout.
For `C=CCCCc1ccnc2ccc(-c3c[nH]c4ncc(CN(C)CC=C)cc34)cc12` [Example 21, Methyl({3-[4-(pent-4-en-1-yl)quinolin-6-yl]-1H-pyrrolo[2,3-b]pyridin-5-yl}methyl)(prop-2-en-1-yl)amine], the IC50 was 10 to 100 nM on DYRK1A and < 10 nM at DYRK1B.
Turning to `C=CCN(C)C(=O)c1cnc2[nH]cc(-c3cc(F)c4ncccc4c3)c2c1` [Example 27, 3-(8-Fluoroquinolin-6-yl)-N-methyl-N-(prop-2-en-1-yl)-1H-pyrrolo[2,3-b]pyridine-5-carboxamide], the IC50 at DYRK1A and on DYRK1B was < 10 nM in each case.
In the case of `O=C(NCc1cccnc1)c1cnc2[nH]cc(-c3ccc4ncc(NCC5CCOCC5)cc4c3)c2c1` [Example 63, 3-{3-[(Oxan-4-ylmethyl)amino]quinolin-6-yl}-N-(pyridin-3-ylmethyl)-1H-pyrrolo[2,3-b]pyridine-5-carboxamide], the IC50 at DYRK1A and at DYRK1B was < 10 nM throughout.
As for `CNC(=O)c1cnc2[nH]cc(-c3ccc4ncc(NCC5CCOCC5)c(N5CCOCC5)c4c3)c2c1` [Example 58, N-Methyl-3-[4-(morpholin-4-yl)-3-[(oxan-4-ylmethyl)amino]quinolin-6-yl]-1H-pyrrolo[2,3-b]pyridine-5-carboxamide], the concentration for half-maximal inhibition (IC50) on DYRK1A is 10 to 100 nM; on DYRK1B, < 10 nM.
`CN1CCC(N(C)c2c([N+](=O)[O-])cnc3ccc(-c4c[nH]c5ncccc45)cc23)CC1` [Example 65, N-Methyl-N-(1-methylpiperidin-4-yl)-3-nitro-6-{1H-pyrrolo[2,3-b]pyridin-3-yl}quinolin-4-amine]: the IC50 on DYRK1A and on DYRK1B was 10 to 100 nM in each case.
With `N[C@H]1CCCN(c2ccnc3ccc(-c4c[nH]c5ncccc45)cc23)C1` [Example 3, (3S)-1-(6-{1H-Pyrrolo[2,3-b]pyridin-3-yl}quinolin-4-yl)piperidin-3-amine], the half-maximal inhibitory concentration (IC50) against DYRK1A and at DYRK1B was < 10 nM in each case.
Regarding `CNC(=O)c1cnc2[nH]cc(-c3ccc4ncccc4c3)c2c1` [Example 25, N-Methyl-3-(quinolin-6-yl)-1H-pyrrolo[2,3-b]pyridine-5-carboxamide], the IC50 against DYRK1A and on DYRK1B was < 10 nM in each case.
Take `Fc1cc(-c2c[nH]c3ncccc23)cc2c(-c3cccnc3)ccnc12` [Example 19, 8-Fluoro-4-(pyridin-3-yl)-6-{1H-pyrrolo[2,3-b]pyridin-3-yl}quinoline]: the IC50 on DYRK1A and at DYRK1B was < 10 nM throughout.
For `C=CC1CN2CCC1CC2[C@H](O)c1ccnc2ccc(-c3c[nH]c4ncccc34)cc12` (stereo in doubt) [Example 9, {5-Ethenyl-1-azabicyclo[2.2.2]octan-2-yl}(6-{1H-pyrrolo[2,3-b]pyridin-3-yl}quinolin-4-yl)methanol], the IC50 against DYRK1A and at DYRK1B was < 10 nM throughout.
With `NCCCNC(=O)c1cnc2[nH]cc(-c3cc(F)c4ncccc4c3)c2c1` [Example 35, N-(3-Aminopropyl)-3-(8-fluoroquinolin-6-yl)-1H-pyrrolo[2,3-b]pyridine-5-carboxamide hydrochloride], the IC50 at DYRK1A and at DYRK1B was < 10 nM in each case.
With `CNC(=O)c1cnc2[nH]cc(-c3ccc4ncc(NCc5cccc(Cl)c5)c(N5CCOCC5)c4c3)c2c1` [Example 56, 3-(3-{[(3-Chlorophenyl)methyl]amino}-4-(morpholin-4-yl)quinolin-6-yl)-N-methyl-1H-pyrrolo[2,3-b]pyridine-5-carboxamide], the values for the IC50 on DYRK1A and at DYRK1B were 10 to 100 nM and < 10 nM, respectively.
On the same counts, the results for `C=CCN(C)C(=O)c1cnc2[nH]cc(-c3cc(OC)c4ncccc4c3)c2c1` [Example 26, 3-(8-Methoxyquinolin-6-yl)-N-methyl-N-(prop-2-en-1-yl)-1H-pyrrolo[2,3-b]pyridine-5-carboxamide] are > 100 nM and > 100 nM.
